{
  "source": "patent US9180114B2",
  "about": "“Neurodegenerative diseases and methods of modeling” (PRESIDENT AND FELLOWS OF HARVARD COLLEGE, priority 2008, dated 2015)",
  "molecules": {"B1": {"name": "GMFb: glial maturation factor beta, induces a pro-inflammatory state in astrocytes (protein, UniProt Q9CQI3 2-142, looked up)", "Glia maturation factor beta": "SESLVVCDVAEDLVEKLRKFRFRKETHNAAIIMKIDKDERLVVLDEELEGVSPDELKDELPERQPRFIVYSYKYQHDDGRVSYPLCFIFSSPVGCKPEQQMMYAGSKNKLVQTAELTKVFEIRNTEDLTEEWLREKLGFFH"}, "B2": {"name": "Mcp2: cytokine over expressed in mutant glia (protein, UniProt Q9Z121 24-97, looked up)", "C-C motif chemokine 8": "GPDKAPVTCCFHVLKLKIPLRVLKSYERINNIQCPMEAVVFQTKQGMSLCVDPTQKWVSEYMEILDQKSQILQP"}},
  "key": {"mice": {"test_system": "mice", "settings": "cited from earlier work; for induction of (cutaneous) vasodilation: agonist alone"}, "[1]": {"test_system": "Hb9::GFP human ES cell-derived motor neurons", "test": "Survival of Hb9::GFP human ES cell-derived motor neurons co-cultured with non-transgenic (WT) glia treated with candidate factors", "type": "cell-based", "settings": "20 days of treatment", "method": "After 24 hours, the cells had aggregated to form embryoid bodies (EBs), and the media was changed to remove debris by centrifuging the EBs and resuspending in fresh in human ES cell media without bFGF2 or plasmanate in low attachment 6-well plates. EBs were cultured as such for 13 more days, with half of the media changed every two days, and a complete media change every week. After 14 days, the EBs were induced toward a caudal and ventral identity using retinoic acid (1 μM, Sigma) and an agonist of the Shh signaling pathway (1 μM) in N2 media: 1:1 DMEM:F-12+Glutamate (Gibco), 10,000 units Penicillin and 1 mg/mL Streptomicin (Gibco), 1% N2 Supplement (Gibco), 0.2 mM ascorbic acid (Sigma-Aldrich), 0.16% D-(+)-Glucose (Sigma-Aldrich), BDNF (10 ng/ml, R&D Systems), for another 14 days. The EBs were then matured for a final 14 days in N2 media with GNDF (10 ng/mL, R&D Systems). After 42 days of differentiation, the EBs were dissociated. To dissociate the EBs, they were centrifuged at 1000 rpm for 5 min in a 15 ml falcon tube, and then washed once with PBS to eliminate residual media. The EBs were then incubated for 60 minutes at 37° C. in Earle's Balanced Salt Solution with 20 units of papain and 1000 units of Deoxyribonuclease I (Worthington Biochemical Corporation). EBs were triturated using a 2 mL serological pipette every 15-20 minutes during this incubation. When an almost single cell suspension was achieved, the cells were centrifuged for 5 minutes at 1000 RPM. […] These cells were then counted and plated on Poly-D-Lysine/Laminin CultureSlides (BD biosciences) or on a layer of primary glial cells. Depending on the experiment, motor neurons or interneurons were counted 10 or 20 days after plating.\nNon-transgenic glia were individually pretreated for 1 day with either one of the three cytokines MCP2, Cxcl7, or Rantes; with GMFb; an agonist of SHH pathway; or with PGD2. […] Replicate cultures were individually maintained for 20 days in the presence of each of the 6 factors, fixed, and the numbers of GFP positive motor neurons quantified. […]"}, "[2]": {"test_system": "Hb9::GFP human ES cell-derived motor neurons on SOD1G93A glia", "test": "Survival of human ES cell-derived motor neurons co-cultured with SOD1G93A glia treated with prostaglandin D2 receptor antagonists", "type": "cell-based", "settings": "for Hb9::GFP cells remaining (cell death / survival of motor neurons) on SOD1G93A glia: 10 days of treatment"}},
  "data": [
    {"molecule": "O=C(O)CCCCCCC1C(=O)NC(=O)N1CCC(O)C1CCCCC1", "note": "(stereo not shown) [BW245C]", "values": [
      {"measurement": "induction of (cutaneous) vasodilation", "setting": "mice", "result": "induced vasodilation"}
    ]},
    {"molecule": "CCCCCC(=O)CCC1C(=O)CC(O)C1C/C=C\\CCCC(=O)O", "note": "(stereo not shown) [DK-PGD2, 13,14-dihydro-15-keto-PGD2]", "values": [
      {"measurement": "induction of (cutaneous) vasodilation", "setting": "mice", "result": "did not induce cutaneous vasodilation"}
    ]},
    {"molecule": "CCCCC[C@H](O)/C=C/[C@H]1C(=O)C[C@H](O)[C@@H]1C/C=C\\CCCC(=O)O", "note": "[PGD2, prostaglandin D2]", "values": [
      {"measurement": "number of motor neurons compared to the control condition", "setting": "[1]; WT glia pretreated 1 day, 10 μM", "result": 19, "unit": "%+/−2%"}
    ]},
    {"molecule": "CS(=O)(=O)c1cc(F)cc2c3c(n(Cc4ccc(Cl)cc4)c12)[C@@H](CC(=O)O)CC3", "note": "[MK 0524]", "values": [
      {"measurement": "blockade of PGD2- and NA-induced vasodilation", "setting": "mice; PGD2 or nicotinic acid (NA) challenge", "result": "blocked both PGD2- and NA-induced vasodilation"},
      {"measurement": "increase in the number of GFP positive neurons relative to untreated neurons plated on the same glia", "setting": "[2]", "result": 32, "unit": "%"},
      {"measurement": "neuronal cell death for motor neurons cultured on SOD1G93A glia", "setting": "[2]", "result": "significantly reduced neuronal cell death"}
    ]},
    {"molecule": "O=C(O)CCCCCCC1C(=O)N(Cc2ccccc2)C(=O)N1NCC(O)C1CCCCC1", "note": "(stereo not shown) [BWA868C]", "values": [
      {"measurement": "Hb9::GFP cells remaining (cell death / survival of motor neurons) on SOD1G93A glia", "setting": "[2]", "result": "significantly reduced cell death"},
      {"measurement": "Hb9::GFP cells remaining (cell death / survival of motor neurons) on SOD1G93A glia", "setting": "[2]; listed as BW868C", "result": "significantly reduced neuronal cell death"}
    ]},
    {"molecule": "B1", "values": [
      {"measurement": "number of human ES cell derived motor neurons compared to the control condition", "setting": "[1]; non-transgenic (WT) glia pretreated 1 day, 250 ng/ml", "result": 95, "unit": "%+/−9%"}
    ]},
    {"molecule": "B2", "values": [
      {"measurement": "number of GFP positive motor neurons compared to the control condition", "setting": "[1]; non-transgenic (WT) glia pretreated 1 day, 100 ng/ml", "result": 103, "unit": "%+/−8%"}
    ]}
  ]
}
